Patent US9918974B2, “Pyridone derivatives as rearranged during transfection (RET) kinase inhibitors” (GlaxoSmithKline Intellectual Property Development Limited, priority 2014, dated 2018)

Target: Human RET kinase (Homo sapiens (Human), UniProt P07949, C634W)
Assay: RET kinase cell-based mechanistic assay (constitutive RET kinase phosphorylation in TT cells)
Conditions: 2 h treatment, phospho-RET ELISA
Protocol: RET Kinase Cell-Based Mechanistic Assay
The potency of the compounds of the invention were tested for its ability to inhibit constitutive RET kinase phosphorylation in cell-based assay. TT cells (ATCC CRL-1803), a medullary thyroid cancer cell line with constitutively activated RET kinase, were maintained in 150 cm^2 dishes in F12 Kaighn's medium, 10% fetal bovine serum, 1× Glutamax, 1× non-essential amino acids, 1× Pen/Strep antibiotics at 37° C. in 5% carbon dioxide. 1.0E5 TT cells/well were plated in a 96-well cell culture plate and allowed to adhere overnight. […] Plates were washed 4× with 200 μL of 1×PBS; 0.05% Tween-20, 100 μL of TMB (3,3′,5,5″-tetramethylbenzidine) substrate (Cell Signaling #7004) was added, incubated for 10 minutes at 37° C., 100 μL of Stop solution (Cell Signaling #7002) was added and absorbance read on a spectrophotometer at 450 nm. […]

Human RET kinase, sequence (P07949 29-1114 C634W): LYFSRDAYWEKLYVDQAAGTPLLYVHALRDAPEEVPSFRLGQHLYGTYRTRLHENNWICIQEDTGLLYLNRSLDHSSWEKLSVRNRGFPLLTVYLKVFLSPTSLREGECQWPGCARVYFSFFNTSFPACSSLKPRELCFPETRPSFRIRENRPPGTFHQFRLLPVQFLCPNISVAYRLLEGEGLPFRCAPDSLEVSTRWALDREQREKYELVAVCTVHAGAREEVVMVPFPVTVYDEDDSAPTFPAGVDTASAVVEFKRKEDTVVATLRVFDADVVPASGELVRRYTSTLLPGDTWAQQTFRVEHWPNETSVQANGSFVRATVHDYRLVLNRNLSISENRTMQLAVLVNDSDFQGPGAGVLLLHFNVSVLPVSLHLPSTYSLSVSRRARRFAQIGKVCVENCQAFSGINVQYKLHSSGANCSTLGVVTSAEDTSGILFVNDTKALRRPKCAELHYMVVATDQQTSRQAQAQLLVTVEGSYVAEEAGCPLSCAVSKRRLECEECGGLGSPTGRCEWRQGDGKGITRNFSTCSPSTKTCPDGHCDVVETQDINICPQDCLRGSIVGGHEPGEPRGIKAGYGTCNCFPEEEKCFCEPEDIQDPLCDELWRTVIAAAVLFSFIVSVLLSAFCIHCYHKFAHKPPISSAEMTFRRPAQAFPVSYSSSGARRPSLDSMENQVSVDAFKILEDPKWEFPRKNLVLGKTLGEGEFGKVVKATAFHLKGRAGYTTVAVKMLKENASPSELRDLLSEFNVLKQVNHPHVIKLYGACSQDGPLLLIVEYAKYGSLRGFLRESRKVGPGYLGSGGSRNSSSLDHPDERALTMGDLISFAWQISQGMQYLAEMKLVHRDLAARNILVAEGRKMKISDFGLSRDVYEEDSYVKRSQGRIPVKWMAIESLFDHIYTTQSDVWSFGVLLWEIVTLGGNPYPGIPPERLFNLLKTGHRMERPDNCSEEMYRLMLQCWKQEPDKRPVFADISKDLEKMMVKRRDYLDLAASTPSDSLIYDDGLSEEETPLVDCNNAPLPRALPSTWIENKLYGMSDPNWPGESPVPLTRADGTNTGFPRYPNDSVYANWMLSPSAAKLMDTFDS

Compound | IC50
CCOc1cc(=O)[nH]cc1-c1ccc(CC(=O)Nc2cc(C(=O)NCCN(C)C)cc(C(F)(F)F)c2)c(F)c1 [Example 1, N-(2-(dimethylamino)ethyl)-3-(2-(4-(4-ethoxy-6-oxo-1,6-dihydropyridin-3-yl)-2-fluorophenyl)acetamido)-5-(trifluoromethyl)benzamide] | 10 to 100 nM
CCOc1cc(=O)[nH]cc1-c1ccc(CC(=O)Nc2cc(OCCN(C)C)cc(C(F)(F)F)c2)c(F)c1 [Example 2, N-(3-(2-(dimethylamino)ethoxy)-5-(trifluoromethyl)phenyl)-2-(4-(4-ethoxy-6-oxo-1,6-dihydropyridin-3-yl)-2-fluorophenyl)acetamide] | 10 to 100 nM
